Results: patent publication US12115180B2 (Board of Supervisors of Louisiana State University and …, priority 2020, dated 2024)

Legend:
[1] = pKa and protonation of the side-chain amines; assay type: physicochemical
[2] = tested on: neonatal rat cardiomyocytes (NRCs); test: Lactate dehydrogenase release assay for cardiac myocytes; assay type: cell-based, Sprague Dawley rat; conditions: 5 μM, 10 μM, and 25 μM; 24 h
Description: (§1) Cell Lines and Maintenance. Primary Neonatal Rat Cardiomyocyte Culture. The inventors isolated neonatal rat cardiomyocytes (NRCs) from the ventricles of 1-2 day old Sprague Dawley rat pups as described previously. Briefly, ventricular tissues excised from rat pups were digested with collagenase at 4° C. overnight with subsequent digestion in trypsin. Next, cells were preplated to remove cardiac fibroblasts, followed by plating of isolated cardiomyocytes at 1.5×10^6 cells per 10 cm^2 plate in αMEM containing 10% fetal bovine serum (FBS) (Gibco) and 1% antibiotic-antimycotic (Gibco) media. After 24 h, NRCs were maintained in Dulbecco's modified Eagle's medium (DMEM) (Gibco) containing 2% FBS and 1% antibiotic-antimycotic and subjected to different treatments, as described previously. All cell culture treatments were repeated in three independent experiments.
Biochemical Assays. Lactate Dehydrogenase Release Assay for Cardiac Myocytes. Following treatments, culture media were collected and cleared by centrifugation at 5000 g for 10 min. Lactate dehydrogenase (LDH) release into culture media was measured using a cytotoxicity detection kit (Roche®) as per the manufacturer's instructions. Color development was measured using a microplate absorbance reader at an absorbance of 492 nm (Bio-Rad®).

p53 = test: Western blot of p53 expression in NRCs; assay type: cell-based, Sprague Dawley rat; conditions: 10 μM, 24 h
Description: as §1
Protein Extraction and Western Blot Analyses. NRCs were washed with PBS and lysed with CelLytic M (Sigma-Aldrich) lysis buffer containing a complete protease inhibitor cocktail (Roche®). […] The protein concentration of the soluble cardiomyocyte lysates was measured using the modified Bradford reagent relative to a BSA standard curve (Bio-Rad®) in a 1 mL cuvette on a DS-11 FX+ spectrophotometer (DeNovix®, Wilmington, DE). […]

SMILES | pKa [1] | fraction protonated ([1]; pH 4.5) [%] | fraction protonated ([1]; pH 5.5) [%] | LDH release (cell death) [2] | p53 protein expression (p53)
CCCCN(CCN)CCCC | 4 | 24 | 3 |  | 
NCCN1CCCC1 [PY, 2-pyrrolidine-1-yl-ethyl-amine] | 5.4 | 89 | 44 |  | 
COc1cccc2c1C(=O)c1c(O)c3c(c(O)c1C2=O)C[C@@](O)(C(=O)CO)C[C@@H]3O[C@H]1C[C@H](N)[C@H](O)[C@H](C)O1 [con-DOX, doxorubicin] |  |  |  | dose-dependent increase in cell death | increased p53 expression
